Assay results reported in patent US11000568B2, “Means and methods for treating copper-related diseases” (HELMHOLTZ ZENTRUM MÜNCHEN—DEUTSCHES FORSCHUNGSZENTRUM FÜR …, priority 2015, dated 2021).
Entries after “also recorded” stand apart in the source; their conditions may differ. Numbered stars: 1 amine (or outer) side, 2 acyl side, 3 side chain; on linkers, the order of the positions; unused ones are H or OH. Bridge positions count the residues as written; N and C are the ends. Square brackets hold non-standard residues; d marks the D form. Peptide text beside a SMILES is read from it. * marks the point of attachment. X2 = O=C1OC(C2CCCN2[*:1])=NC1C(=S)NC(CO)C(=O)[*:2]; X1 = CC(C)CC(=O)C1=NC(C(=S)NCC(=O)*)C(=O)O1

Legend:
[1] = test system: LPP−/− livers; test: Two hour LPP−/− liver perfusion; set-up: species or system rat
Method: LPP−/− livers (animal age 79-83 days) were perfused in a single pass manner with Krebs-Ringer bicarbonate solution containing 5 mM glucose (Beuers et al., J Biol Chem 278, 17810-17818 (2003)). The medium was gassed with 95% O2/5% CO2 and kept at 37° C. Rat livers were perfused via the portal vein (Beuers et al., log. cit.), the right lateral liver lobe was ligated and its copper content served as pre-perfusion control (Beuers et al., Hepatology 33, 1206-1216 (2001)). After cannulation of the bile duct a 20 min sample of bile was collected before the copper chelators were continuously added to the perfusion medium. Bile and outflow perfusate were collected in 10 min intervals as described elsewhere (Beuers et al., log. cit.). D-PA*HCl (20 mg/108 μmol), TETA*2HCl (20 mg/91 μmol), TTM*2NH4 (10 mg/38 μmol) and MB (40 mg/35 μmol) were each dissolved in 50 ml 0.9% NaCl, and continuously added to the perfusion medium via a perfusion pump (Perfusor, Braun, Melsungen) within 2 hours. The molar ratios of the chelators applied was MB 1:D-PA 3.1:TETA 2.6:TTM 1.1. LDH in the outflow perfusate was measured every ten minutes as described (Beuers et al., log. cit.). Control perfusions were done with Krebs-Ringer bicarbonate solution only.

[2] = test system: diseased LPP−/− rats; test: Acute rescue regimen in diseased LPP−/− rats; assay type: in vivo, rat
[3] = test system: WD patient-derived hepatocyte like (HLC) cells; test: De-coppering of WD patient-derived hepatocyte like cells (HLC); assay type: cell-based, human; settings: Cu-histidin 15 μM 24 h, then MB 300 μM 24 h
Method: Urinary epithelial cells were pelleted at 400×g for 10 min from freshly donated mid-stream urine (Zhou et al., J Am Soc Nephrol 22, 1221-1228 (2011)). Cells were cultured in urinary cell medium (UCM) consisting of Dulbecco's modified Eagle medium/Ham's F-12 culture medium (DMEM/F12, Lonza) supplemented with 10% fetal bovine serum (FBS, PAA), 0.1 mM non-essential amino acids (NEAA, Sigma), 0.1 mM β-mercaptoethanol, 1 mM GlutaMAX (Life Technologies), and SingleQuot Kit CC-4127 REGM (Lonza). Urinary epithelial cells were reprogrammed by nucleofection of episomal expression vectors pCXLE-hOCT3/4-shp53-F, pCXLE-hSK, and pCXLE-hUL (Addgene) using the Amaxa Basic Nucleofector Kit (Lonza, VPI-1005). iPS cells (iPSCs) were maintained on Matrigel-coated plates in mTeSR cell culture medium and dissociated with 1 U/ml dispase (Stem Cell Technologies) into small clusters and subcultured every 5 to 7 days. WD iPSCs were differentiated into hepatocyte-like cells (HLCs) by a modification of the method reported previously (Basma et al., Gastroenterology 136, 990-999 (2009)). […] iPSCs were plated in single cells onto 6-well plates precoated with Matrigel. […]
HLCs were incubated at day 14 with Cu-histidin (15 μM) for 24 h in a 6 well plate. […] After 24 h incubation, washed cells were collected, counted and their copper content assessed.

[4] = test system: metallothionein; settings: in vitro and in vivo experiments; cited from earlier work
[5] = test system: LPP−/− rats; test: Short-term in vivo treatment of LPP−/− rats; set-up: species or system rat
Method: LPP rats were treated with MB either by daily i.p. injections for 3 or 5 consecutive days, or twice daily i.p. injections for 8 consecutive days at a dose of 150 mg/kg bw or 4 days via the drinking water with D-PA at a dose of 100 mg/kg bw/d or TETA at 480 mg/kg bw/d, respectively (Togashi et al., Hepatology 15, 82-87 (1992)). Based on a mean copper content of 250 μg/g w.w. in Atp7b−/− rat livers at the age of treatment start (Zischka et al., log. cit.), a LPP−/− rat liver of 8 g w.w. contains around 31.5 μmol copper. Single MB doses were chosen equimolar to this copper amount. […] Assuming 40 ml water intake per day for a rat weighing 250 g this translates to a dose of 480 mg/kg bw/d. With respect to the mean liver copper content in LPP−/− rats aged 85 days, the molar ratios of the chelators applied was MB 1:D-PA 4.3:TETA 17.4, respectively. For the intravenous MB application (150 mg/kg bw), catheters connected to a PinPort™ (Instech Laboratories, Inc., USA) were inserted in the femoral vein of the rat, fixed with non-absorbable sutures and subcutaneously tunneled and exteriorized through a skin incision made between the shoulders.
Formalin-fixed, paraffin-embedded liver samples were cut into 4 μm-thick sections and either stained with hematoxylin and eosin for standard analyses or with Masson trichrome for analysis of fibrotic tissue. AST activity and bilirubin concentration in animal plasma or serum were measured with a Reflotron system (Roche).
Copper in liver homogenates, cell lysates and mitochondrial preparations were analyzed by ICP-OES (Ciros Vision, SPECTRO Analytical Instruments GmbH) after wet ashing of samples with 65% nitric acid (Zischka et al., log. cit.).
The efficiency of a short-term MB treatment schedule was assessed in LPP−/− rats at the age of liver disease onset (85-90 days). Animals received MB (i.p.) either for 3 or 5 days or the clinically used copper chelators D-PA or TETA, which were orally administered for 4-days.

[6] = MB i.p. 3 or 5 days, D-PA or TETA 4 days
[7] = i.v. MB daily, five consecutive days

With `CSCCC(NC(=O)C1CSSCC(NC(=O)C(CO)NC(=O)CNC(=S)C2N=C(C(=O)CC(C)C)OC2=O)C(=O)NC(Cc2ccc(O)cc2)C(=O)N2CCCC2C2=NC(C(=O)O2)C(=S)NC(CO)C(=O)N1)C(=O)O` (stereo not shown) [MB] (X1-SCY[X2]CM-OH; disulfide 2-5; configuration not given here) the “copper released into bile” value ([1]; MB 0.7 μM, TTM 0.8 μM, D-PA 2.2 μM, TETA 1.8 μM) was “tenfold higher amounts of copper; also recorded: tenfold higher copper amounts into bile”, the “liver copper content after perfusion” value ([1]; vs pre-perfusion/buffer control) was “significantly reduced the copper content; also recorded: significantly reduces the liver copper content” and the body weight ([2]; 16 i.p. injections) was “regained weight”. The copper values ([2]; end of treatment regimen) was “exceptionally low copper values”, the “serum AST and bilirubin” value ([2]; end of treatment regimen) was “normal serum AST and bilirubin” and the weight regained ([2]; moribund animal no. 3) was 29%. The survival ([2]; two daily MB i.p. injections for one week (16 in total), four rats) was “All animals survived”, the “de-coppering of copper preloaded HLC” value [3] was “Comparable copper depletions; also recorded: highly efficiently de-coppered” and the “removal of Cu from metallothionein” value [4] was “has been shown to remove Cu from metallothionein”. For the same compound, the histopathological liver damage ([5]; MB 150 mg/kg bw i.p. daily 3 or 5 days, D-PA 100 mg/kg bw/d or TETA 480 mg/kg bw/d oral 4 days) was “strong reduction of histopathological liver damage markers”, the “duration of normal serum AST on MB drug holiday” value ([5]; MB five days, then drug holiday, zinc enriched food (1000 ppm)) was “at least two weeks” and the body weight ([5]; MB i.p. 3 or 5 days) was “regained body weight”. For the same compound, the mitochondrial copper [5, 6] was “significant reduction at the mitochondrial copper level”, the “serum AST levels” value [5, 6] was “markedly decreased” and the whole liver copper [5, 6] was “progressive reduction in total liver copper; also recorded: progressive but minor reduction at the whole liver copper level”. The “serum AST” value ([5]; after 5 days of MB treatment, two onset and one diseased rat) was less than 200 U/L, the “severely impaired mitochondria (type 4) in isolates” value ([5]; electron microscopy, short-term treatment) was “almost absent” and the body weight ([5]; i.v. MB 150 mg/kg bw daily, five consecutive days) was “All animals regained bodyweight”. The “AST or bilirubin levels” value [5, 7] was “levels returned to normal”, the “copper content of whole liver and purified mitochondria” value [5, 7] was “profound reduction in copper content” and the mitochondrial copper load ([5]; one week: 5× MB i.p., 5× MB i.v., 16× MB i.p.) was “drastically reduce the mitochondrial copper load”. For the same compound, the “ATP production of isolated mitochondria” value ([5]; short term MB treatments) was “reverse this impairment”.
